Patent US5686486A, “4-hydroxy-benzopyran-2-ones and 4-hydroxy-cycloalkyl[b]pyran-2-ones useful to treat retroviral infections” (priority 1995, dated 1997)
Read-outs that look alike come from different tables or passages of the source.

Tests used:
HIV-1 protease [1] = target: T1, HIV-1 protease (Human immunodeficiency virus type 1 group M subtype B, UniProt P04585); test: biochemical; conditions: for inhibition at 1 µM: read-out: HIV-1 Protease % Inhib, dose 1.000 uM; for inhibition at 10 µM: read-out: HIV-1 Protease % Inhib, dose 10.000 uM; for inhibition at 100 µM: read-out: HIV-1 Protease % Inhib, dose 100.000 uM; for inhibition at 0.41 µM: read-out: HIV-1 Protease % Inhib, dose 0.410 uM; for inhibition at 1.23 µM: read-out: HIV-1 Protease % Inhib, dose 1.230 uM; for inhibition at 3.7 µM: read-out: HIV-1 Protease % Inhib, dose 3.700 uM; for inhibition at 11 µM: read-out: HIV-1 Protease % Inhib, dose 11.000 uM; for inhibition at 33 µM: read-out: HIV-1 Protease % Inhib, dose 33.000 uM; for inhibition at 0.123 µM: read-out: HIV-1 Protease % Inhib, dose 0.123 uM; for inhibition at 0.37 µM: read-out: HIV-1 Protease % Inhib, dose 0.370 uM; for inhibition at 1.1 µM: read-out: HIV-1 Protease % Inhib, dose 1.100 uM; for inhibition at 3.3 µM: read-out: HIV-1 Protease % Inhib, dose 3.300 uM; for inhibition at 30 µM: read-out: HIV-1 Protease % Inhib, dose 30.000 uM
Procedure, shortened: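 Percent inhibition derived from fluorescent cleavage product separated by filtration after streptavidin-bead capture of intact biotin/FITC substrate. Reaction: enzyme (10 μl, 0.1 μM stock) with substrate (20 μl, 0.2 μM stock) and compound, 1 h at room temperature in dark, pH 5.5 acetate buffer with 1.0 M NaCl and 0.05% NP-40.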

HIV-1 protease [2] = target: T1, HIV-1 protease; test: biochemical
Procedure, shortened: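 Enzyme (40 nM stock) and substrate (200 μM stock) incubated with inhibitor, 24–48 two-fold serial concentrations, for 90 min at room temperature, then quenched with avidin beads. Nonlinear least-squares analysis gives Ki; a known-Ki inhibitor validates each run.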

| SMILES | inhibition at 1 µM (HIV-1 protease [1]) [%] | inhibition at 10 µM (HIV-1 protease [1]) [%] | inhibition at 100 µM (HIV-1 protease [1]) [%] | Ki (HIV-1 protease [2]; HIV-1 FITC KI) [nM] | inhibition at 0.41 µM (HIV-1 protease [1]) [%] | inhibition at 1.23 µM (HIV-1 protease [1]) [%] | inhibition at 3.7 µM (HIV-1 protease [1]) [%] | inhibition at 11 µM (HIV-1 protease [1]) [%] | inhibition at 33 µM (HIV-1 protease [1]) [%] | inhibition at 0.123 µM (HIV-1 protease [1]) [%] | inhibition at 0.37 µM (HIV-1 protease [1]) [%] | inhibition at 1.1 µM (HIV-1 protease [1]) [%] | inhibition at 3.3 µM (HIV-1 protease [1]) [%] | inhibition at 30 µM (HIV-1 protease [1]) [%] | Ki (HIV-1 protease [2]; read-out: HIV-1 FITC KI) [nM] |
| --- | --- | --- | --- | --- | --- | --- | --- | --- | --- | --- | --- | --- | --- | --- | --- |
| CCC(c1cccc(NS(=O)(=O)CCN2C(=O)c3ccccc3C2=O)c1)c1c(O)c2ccccc2oc1=O (stereo not drawn) [Example 139, 2-(1,3-Dioxo-1,3-dihydro-isoindol-2-yl)-ethanesulfonic acid(3-(1-(4-hydroxy-2-oxo-2H-chromen-3-yl)-propyl)-phenyl)amide] | 36.6 | 80.7 | 99.2 | 500 | – | – | – | – | – | – | – | – | – | – | – |
| CCC(c1cccc(NS(=O)(=O)CCNC(=O)OC(C)(C)C)c1)c1c(O)c2ccccc2oc1=O (stereo not drawn) [Example 140, 2-(N-t-butyloxycarbonyl-amino)-ethanesulfonic acid (3-(1-(4-hydroxy-2-oxo-2H-chromen-3-yl)-propyl)-phenyl)-amide] | – | – | 109 | 762 | < 10 | 16.5 | 48.1 | 71.8 | 91.1 | – | – | – | – | – | – |
| O=c1oc2ccccc2c(O)c1C(Cc1ccccc1)Cc1ccccc1 [Example 146, 3-(1-Benzyl-2-phenyl-ethyl)4-hydroxy-chromen-2-one] | 54.4 | 92.7 | 98.6 | 130 | – | – | – | – | – | – | – | – | – | – | – |
| CCC(c1cccc(C(=O)NC(C(=O)NCc2ccccn2)C(C)CC)c1)c1c(O)c2ccccc2oc1=O (stereo not drawn) [Example 149, 3-(1-(4-Hydroxy-2-oxo-2H-chromen-3-yl)-propyl)-N-(2-methyl-1-(pyridin-2-ylmethylcarbomoyl)-butyl)-benzamide] | 28.8 | 99.2 | 97.3 | 405 | – | – | – | – | – | – | – | – | – | – | – |
| CC(C)(C)C(c1ccccc1)c1c(O)c2ccccc2oc1=O (stereo not drawn) [Example 152, 3-(2,2-Dimethyl-1-phenyl-propyl)-4-hydroxy-chromen-2-one] | – | – | 110 | 1010 | < 10 | 14.2 | 35.5 | 73.7 | 102 | – | – | – | – | – | – |
| CCC(c1ccccc1)c1c(O)c2ccc(OCCOCCOCCOC)cc2oc1=O (stereo not drawn) [Example 154] | 13.6 | 77.1 | 96 | 520 | – | – | – | – | – | – | – | – | – | – | – |
| O=c1oc2ccccc2c(O)c1C1CCN(Cc2ccccc2)c2ccccc21 (stereo not drawn) [Example 159, 3-(1-Benzyl-1,2,3,4-tetrahydro-quinolin4-yl)-4-hydroxy-chromin-2-one] | – | – | 91.1 | 2400 | < 10 | 14.4 | 39.8 | 74.3 | 84.2 | – | – | – | – | – | – |
| CC(CO)C1CCCCCc2c1oc(=O)c(C(c1ccccc1)C1CC1)c2O (stereo not drawn) [Example 161, 3-(Cyclopropylphenylmethyl)-5,6,7,8,9,10-hexahydro-4-hydroxy-10-(2-hydroxy-1-methylethyl)-2H-cyclooct[b]pyran-2-one] | – | 106 | – | – | – | – | – | – | – | 20 | 67.3 | 98.7 | 104 | 111 | 32 |
| CC(O)CC1CCCCCc2c1oc(=O)c(C(c1ccccc1)C1CC1)c2O (stereo not drawn) [Example 162, 3-(Cyclopropylphenylmethyl)-5,6,7,8,9,10-hexahydro-4-hydroxy-10-(2-hydroxypropyl)-2H-cycloocta[b]pyran-2-one] | – | 102 | – | – | – | – | – | – | – | 14.8 | 56 | 92.2 | 99.3 | 109 | 40 |
| O=c1oc2c(c(O)c1C(c1ccccc1)C1CC1)CCCCCC2CC1CO1 (stereo not drawn) [Example 163, 3-(Cyclopropylphenylmethyl)-5,6,7,8,9,10-hexahydro-4-hydroxy-10-(oxiranylmethyl)-2H-cycloocta[b]pyran-2-one] | – | 107 | – | – | – | – | – | – | – | 17.7 | 56 | 84.2 | 98.6 | 105 | 34 |
| Nc1cccc(C(c2c(O)c3c(oc2=O)CCCCCC3)C2CC2)c1 (stereo not drawn) [Example 164, 3-[(3-Aminophenyl)cyclopropylmethyl]-5,6,7,8,9,10-hexahydro-4-hydroxy-2H-cycloocta[b]pyran-2-one] | – | 99.7 | – | – | – | – | – | – | – | – | 14.6 | 46.2 | 87.3 | 102 | 78 |
| CC(C)(C)OC(=O)NCCC(=O)Nc1cccc(C(c2c(O)c3ccccc3oc2=O)C2CC2)c1 (stereo not drawn) [Example 165, Carbamic acid, [3-[[3-[cyclopropyl(4-hydroxy-2-oxo-2H-1-benzopyran-3-yl)methyl]phenyl]amino]-3-oxopropyl]-, 1,1-dimethylethyl ester] | – | – | 114 | 86 | 61.7 | 86.7 | 98.4 | 106 | 111 | – | – | – | – | – | – |
| COc1ccc2c(O)c(C(c3cccc(NC(=O)CCNC(=O)OC(C)(C)C)c3)C3CC3)c(=O)oc2c1 (stereo not drawn) [Example 167, Carbamic acid, [3-[[3-[cyclopropyl(4-hydroxy-7-methoxy-2-oxo-2H-1-benzopyran-3-yl)methyl]phenyl]amino]-3-oxopropyl]-, 1,1-dimethylethyl ester] | – | – | 116 | 28 | 83.2 | 99.5 | 113 | 114 | 114 | – | – | – | – | – | – |
| O=C(CCn1ccc2ccccc21)Nc1cccc(C(c2c(O)c3ccccc3oc2=O)C2CC2)c1 (stereo not drawn) [Example 168, Coumarin, 4-hydroxy-3-(α-(3-((3-(1H-indol-1-yl)-1-oxopropyl)amino)phenyl)cyclopropylmethyl)] | – | 94.7 | – | 135 | – | – | – | – | – | – | 12.4 | 46.4 | 74.9 | 107 | – |
| CCC(=O)C1CCCCCc2c1oc(=O)c(C(c1ccccc1)C1CC1)c2O (stereo not drawn) [Example 174, 3-(Cyclopropylphenylmethyl)-5,6,7,8,9,10-hexahydro-4-hydroxy-10-(1-oxopropyl)-2H-cycloocta[b]pyran-2-one] | – | 104 | – | – | – | – | – | – | – | 11.4 | 35.8 | 75 | 95.9 | 97.8 | 35 |
| O=c1oc2c(c(O)c1C(c1ccccc1)C1CC1)CCCCCC2C(O)C1CC1 (stereo not drawn) [Example 176, 10-(Cyclopropylhydroxymethyl)-3-(cyclopropylphenylmethyl)-5,6,7,8,9, 10-hexahydro-4-hydroxy-2H-cycloocta[b]pyran-2-one] | – | 109 | – | – | – | – | – | – | – | – | 27.3 | 82.6 | 104 | 118 | 37 |
| COCC1CCCCCc2c1oc(=O)c(C(c1ccccc1)C1CC1)c2O (stereo not drawn) [Example 177, 3-(Cyclopropylphenylmethyl)-5,6,7,8,9,10-hexahydro4-hydroxy-10-(methoxymethyl)-2H-cycloocta[b]pyran-2-one] | – | 104 | – | – | – | – | – | – | – | – | 16.9 | 53.9 | 88.9 | 104 | 55 |
| COCCC1CCCCCc2c1oc(=O)c(C(c1ccccc1)C1CC1)c2O (stereo not drawn) [Example 178, 3-(Cyclopropylphenylmethyl)-5,6,7,8,9,10-hexahydro-4-hydroxy-10-(2-methoxyethyl)-2H-cycloocta[b]pyran-2-one] | – | 105 | – | – | – | – | – | – | – | 16.2 | 45.5 | 86.4 | 98.8 | 103 | 27 |
| O=c1oc2c(c(O)c1C(c1ccccc1)C1CC1)CCCCCC2CC1CCCOC1 (stereo not drawn) [Example 179, 3-(Cyclopropylphenylmethyl)-5,6,7,8,9,10-hexahydro-4-hydroxy-10-[(tetrahydro-2H-pyran-3-yl)methyl]-2H-cycloocta[b]pyran-2-one] | – | 93.7 | – | – | – | – | – | – | – | – | 38.6 | 71.6 | 87.2 | 91.1 | 19 |
| O=c1oc2c(c(O)c1C(c1ccccc1)C1CC1)CCCCC2Cc1ccccc1 (stereo not drawn) [Example 182, 3-(Cyclopropylphenylmethyl)-6,7,8,9-tetrahydro-4-hydroxy-9-(phenylmethyl)-cyclohepta[b]pyran-2(5H)-one] | – | 99.2 | – | – | – | – | – | – | – | – | 22.3 | 51 | 83.7 | 98.7 | 117 |
| CC(C)CC1CCCCc2c1oc(=O)c(C(c1ccccc1)C1CC1)c2O (stereo not drawn) [Example 183, 3-(Cyclopropylphenylmethyl)-6,7,8,9-tetrahydro4-hydroxy-9-(2-methylpropyl)-cyclohepta[b]pyran-2(5H)-one] | – | 95.8 | – | – | – | – | – | – | – | 20.9 | 56.5 | 85.5 | 97.3 | 89.7 | 13 |
